What all share (type): functional
One test relates to Pseudomonas aeruginosa. The experiment in a line: Antimicrobial activity against Pseudomonas aeruginosa MTCC 1688 by broth microdilution technique.
The next test concerns Candida albicans. The test can be described thus: Antimicrobial activity against Candida albicans MTCC 227 by broth serial dilution technique.
Another test has as its system Staphylococcus aureus. The test can be described thus: Antimicrobial activity against Staphylococcus aureus MTCC 96 by broth microdilution technique.
The next test concerns Escherichia coli. The test can be described thus: Antimicrobial activity against Escherichia coli MTCC 443 by broth microdilution technique. In general terms: Dilution methods test growth across graded concentrations, often in twofold steps.
The next test deals with Bacillus subtilis. The experiment in a line: Antimicrobial activity against Bacillus subtilis MTCC 441 by broth microdilution technique.

≈ marks a conversion by molar mass, not a printed value. Where only a bound is given, the exact number is not on record here.

One may read the MIC50 as an inhibitory concentration at the 50% level, which refers to growth in some studies and to a panel of isolates in others. Low readings indicate greater potency, high ones weaker potency.

With `Cc1ccc2nc(-c3cnn(-c4ccc(F)c(F)c4)c3)oc2c1`, the MIC50 against Pseudomonas aeruginosa is 500 µg/mL (≈ 1610 µM); against Candida albicans, 500 µg/mL (≈ 1610 µM); against Staphylococcus aureus, 200 µg/mL (≈ 642 µM); with Escherichia coli, 200 µg/mL (≈ 642 µM); with Bacillus subtilis, 25 µg/mL (≈ 80.3 µM).
Take GENTAMICIN: the MIC50 against Pseudomonas aeruginosa is 1 µg/mL; against Staphylococcus aureus, 0.25 µg/mL; in the test with Escherichia coli, 0.05 µg/mL; in the test with Bacillus subtilis, 1 µg/mL.
Take `O=C(O)c1cn(C2CC2)c2cc(N3CCNCC3)c(F)cc2c1=O` [CIPROFLOXACIN]: the MIC50 amounted to 25 µg/mL (≈ 75.4 µM) against Pseudomonas aeruginosa, 50 µg/mL (≈ 151 µM) against Staphylococcus aureus, 25 µg/mL (≈ 75.4 µM) against Escherichia coli and 50 µg/mL (≈ 151 µM) in the test with Bacillus subtilis.
Take `Cc1cc(C)c(O)c(C(=O)c2cnn(-c3ccc(F)c(F)c3)c2)c1`: the MIC50 in the test with Pseudomonas aeruginosa is 250 µg/mL (≈ 761 µM); against Candida albicans, 1000 µg/mL (≈ 3050 µM); in the test on Staphylococcus aureus it was 500 µg/mL (≈ 1520 µM); in the test with Escherichia coli, 500 µg/mL (≈ 1520 µM); against Bacillus subtilis, 500 µg/mL (≈ 1520 µM).
`Cc1ccc(O)c(C(=O)c2cnn(-c3ccc(F)c(F)c3)c2)c1`: the MIC50 is 250 µg/mL (≈ 795 µM) in the test on Pseudomonas aeruginosa; 1000 µg/mL (≈ 3180 µM) in the test on Candida albicans; 500 µg/mL (≈ 1590 µM) in the test on Staphylococcus aureus; 500 µg/mL (≈ 1590 µM) against Escherichia coli; 500 µg/mL (≈ 1590 µM) against Bacillus subtilis.
Take `Cc1ccc(C(=O)c2cnn(-c3ccc(F)c(F)c3)c2)c(O)c1`: the MIC50 with Pseudomonas aeruginosa turned out to be 62.5 µg/mL (≈ 199 µM); in the test on Candida albicans, 500 µg/mL (≈ 1590 µM); in the test on Staphylococcus aureus it was 200 µg/mL (≈ 636 µM); with Escherichia coli, 125 µg/mL (≈ 398 µM); in the test with Bacillus subtilis, 100 µg/mL (≈ 318 µM).
For the compound `O=C(c1cnn(-c2ccc(F)c(F)c2)c1)c1cc(Cl)ccc1O`, the MIC50 with Pseudomonas aeruginosa is 500 µg/mL (≈ 1490 µM); in the test with Candida albicans, 500 µg/mL (≈ 1490 µM); against Staphylococcus aureus, 1000 µg/mL (≈ 2990 µM); in the test on Escherichia coli it was 250 µg/mL (≈ 747 µM); against Bacillus subtilis it was 500 µg/mL (≈ 1490 µM).
In the case of `Fc1ccc(-n2cc(-c3nc4cc(Br)ccc4o3)cn2)cc1F`, the MIC50 in the test on Pseudomonas aeruginosa was determined as 250 µg/mL (≈ 665 µM); in the test on Candida albicans, 500 µg/mL (≈ 1330 µM); with Staphylococcus aureus it was 250 µg/mL (≈ 665 µM); in the test on Escherichia coli, 250 µg/mL (≈ 665 µM); against Bacillus subtilis, 250 µg/mL (≈ 665 µM).
Take `O=C(N[C@H](CO)[C@H](O)c1ccc([N+](=O)[O-])cc1)C(Cl)Cl` [CHLORAMPHENICOL]: the MIC50 with Pseudomonas aeruginosa, in the test with Staphylococcus aureus, in the test with Escherichia coli and in the test on Bacillus subtilis was 50 µg/mL (≈ 155 µM) in each case.
As for `O/N=C(/c1cnn(-c2ccc(F)c(F)c2)c1)c1cc(F)ccc1O`, the MIC50 is 500 µg/mL (≈ 1500 µM) against Pseudomonas aeruginosa; 1000 µg/mL (≈ 3000 µM) in the test on Candida albicans; 500 µg/mL (≈ 1500 µM) in the test on Staphylococcus aureus; 500 µg/mL (≈ 1500 µM) with Escherichia coli; 250 µg/mL (≈ 750 µM) in the test with Bacillus subtilis.
Consider NYSTATIN, for which, in the test on Candida albicans, the MIC50 is 100 µg/mL.
As for `Cc1ccc(/C(=N\O)c2cnn(-c3ccc(F)c(F)c3)c2)c(O)c1`, the MIC50 was determined as 50 µg/mL (≈ 152 µM) against Pseudomonas aeruginosa; 500 µg/mL (≈ 1520 µM) in the test with Candida albicans; 250 µg/mL (≈ 759 µM) against Staphylococcus aureus; 25 µg/mL (≈ 75.9 µM) in the test with Escherichia coli; 500 µg/mL (≈ 1520 µM) with Bacillus subtilis.
For `CCn1cc(C(=O)O)c(=O)c2cc(F)c(N3CCNCC3)cc21` [NORFLOXACIN], the MIC50 against Pseudomonas aeruginosa amounted to 10 µg/mL (≈ 31.3 µM); against Staphylococcus aureus it was 10 µg/mL (≈ 31.3 µM); in the test with Escherichia coli, 10 µg/mL (≈ 31.3 µM); in the test with Bacillus subtilis, 100 µg/mL (≈ 313 µM).
As to `O=C(c1cnn(-c2ccc(F)c(F)c2)c1)c1cc(Br)ccc1O`, the MIC50 in the test with Pseudomonas aeruginosa was 500 µg/mL (≈ 1320 µM); in the test on Candida albicans it was above 1000 µg/mL; against Staphylococcus aureus it was 125 µg/mL (≈ 330 µM); against Escherichia coli it was 500 µg/mL (≈ 1320 µM); against Bacillus subtilis, 100 µg/mL (≈ 264 µM).
Take `O=C(c1cnn(-c2ccc(F)c(F)c2)c1)c1cc(F)ccc1O`: the MIC50 in the test on Pseudomonas aeruginosa stood at 50 µg/mL (≈ 157 µM); against Candida albicans, 500 µg/mL (≈ 1570 µM); in the test on Staphylococcus aureus it was 100 µg/mL (≈ 314 µM); with Escherichia coli, 62.5 µg/mL (≈ 196 µM); against Bacillus subtilis, 62.5 µg/mL (≈ 196 µM).
Consider `O/N=C(/c1cnn(-c2ccc(F)c(F)c2)c1)c1ccccc1O`, for which the MIC50 against Pseudomonas aeruginosa was 500 µg/mL (≈ 1590 µM); against Candida albicans, 1000 µg/mL (≈ 3170 µM); against Staphylococcus aureus, above 1000 µg/mL; against Escherichia coli it was 500 µg/mL (≈ 1590 µM); against Bacillus subtilis it was above 1000 µg/mL.
As for `O=C(c1cnn(-c2ccc(F)c(F)c2)c1)c1ccccc1O`, the MIC50 in the test with Pseudomonas aeruginosa came out at 555 µg/mL (≈ 1850 µM); against Candida albicans, 100 µg/mL (≈ 333 µM); against Staphylococcus aureus, 500 µg/mL (≈ 1670 µM); against Escherichia coli, 250 µg/mL (≈ 833 µM); in the test with Bacillus subtilis it was 12.5 µg/mL (≈ 41.6 µM).
Turning to `Fc1ccc2oc(-c3cnn(-c4ccc(F)c(F)c4)c3)nc2c1`, the MIC50 against Pseudomonas aeruginosa is 50 µg/mL (≈ 159 µM); against Candida albicans, 250 µg/mL (≈ 793 µM); in the test with Staphylococcus aureus, 500 µg/mL (≈ 1590 µM); with Escherichia coli, 250 µg/mL (≈ 793 µM); in the test with Bacillus subtilis, 200 µg/mL (≈ 634 µM).
For the compound `O/N=C(/c1cnn(-c2ccc(F)c(F)c2)c1)c1cc(Cl)ccc1O`, the MIC50 with Pseudomonas aeruginosa came to 125 µg/mL (≈ 357 µM); against Candida albicans it was 1000 µg/mL (≈ 2860 µM); with Staphylococcus aureus, 100 µg/mL (≈ 286 µM); against Escherichia coli it was 12.5 µg/mL (≈ 35.7 µM); against Bacillus subtilis, 62.5 µg/mL (≈ 179 µM).
The compound `COC1=CC(=O)C[C@@H](C)[C@]12Oc1c(Cl)c(OC)cc(OC)c1C2=O` [GRISEOFULVIN] yielded an MIC50 in the test on Candida albicans of 500 µg/mL (≈ 1420 µM).
For the compound `O/N=C(/c1cnn(-c2ccc(F)c(F)c2)c1)c1cc(Br)ccc1O`, the MIC50 against Pseudomonas aeruginosa was determined as 100 µg/mL (≈ 254 µM); in the test on Candida albicans, 500 µg/mL (≈ 1270 µM); with Staphylococcus aureus it was 500 µg/mL (≈ 1270 µM); in the test with Escherichia coli, 200 µg/mL (≈ 507 µM); in the test on Bacillus subtilis it was 1000 µg/mL (≈ 2540 µM).
Take `O=C(c1cnn(-c2ccc(F)c(F)c2)c1)c1cc(F)cc(Cl)c1O`: the MIC50 in the test on Pseudomonas aeruginosa was 500 µg/mL (≈ 1420 µM); against Candida albicans, 250 µg/mL (≈ 709 µM); in the test on Staphylococcus aureus, 1000 µg/mL (≈ 2840 µM); against Escherichia coli it was 500 µg/mL (≈ 1420 µM); with Bacillus subtilis, 500 µg/mL (≈ 1420 µM).
Take `Cc1ccc2oc(-c3cnn(-c4ccc(F)c(F)c4)c3)nc2c1`: the MIC50 in the test on Pseudomonas aeruginosa was 62.5 µg/mL (≈ 201 µM); with Candida albicans, 500 µg/mL (≈ 1610 µM); with Staphylococcus aureus it was 50 µg/mL (≈ 161 µM); against Escherichia coli, 500 µg/mL (≈ 1610 µM); with Bacillus subtilis, 200 µg/mL (≈ 642 µM).
On to `Fc1ccc(-n2cc(-c3nc4cc(Cl)ccc4o3)cn2)cc1F`, for which the MIC50 with Pseudomonas aeruginosa was 125 µg/mL (≈ 377 µM); with Candida albicans, 500 µg/mL (≈ 1510 µM); with Staphylococcus aureus, 125 µg/mL (≈ 377 µM); in the test with Escherichia coli, 100 µg/mL (≈ 301 µM); in the test on Bacillus subtilis, 200 µg/mL (≈ 603 µM).
Take `CC1(C)S[C@@H]2[C@H](NC(=O)[C@H](N)c3ccccc3)C(=O)N2[C@H]1C(=O)O` [AMPICILLIN]: the MIC50 in the test on Pseudomonas aeruginosa came out at 100 µg/mL (≈ 286 µM); against Staphylococcus aureus, 250 µg/mL (≈ 715 µM); against Escherichia coli it was 100 µg/mL (≈ 286 µM); against Bacillus subtilis it was 250 µg/mL (≈ 715 µM).
On to `Fc1ccc(-n2cc(-c3nc4ccccc4o3)cn2)cc1F`, for which the MIC50 with Pseudomonas aeruginosa amounted to 100 µg/mL (≈ 336 µM); against Candida albicans, 1000 µg/mL (≈ 3360 µM); with Staphylococcus aureus it was 125 µg/mL (≈ 421 µM); with Escherichia coli, 125 µg/mL (≈ 421 µM); against Bacillus subtilis, 200 µg/mL (≈ 673 µM).

The record behind these values is ChEMBL document CHEMBL1221384, “Synthesis and antimicrobial activity of novel fluorine containing 4-(substituted-2-hydroxybenzoyl)-1H-pyrazoles and pyrazolyl benzo[d]oxazoles” (2010).
